According to PMC7136958, “Targeting the pregnane X receptor using microbial metabolite mimicry” (EMBO Molecular Medicine, 2020):
Several values for one entry are separate records, joined by “and”; a condition that tells them apart may be missing. Identical values can stand only once.

Columns and labels:
IL-8 mRNA in HIOs = assay: IL-8 mRNA in iPSC-derived human intestinal organoids exposed to cytokine cocktail; type: cell-based; parameters: key to IL8 mRNA: relative IL-8 mRNA level, normalized to GAPDH; conditions: for basal IL-8 expression: 10 and 25 μM; for IL-8 mRNA expression in presence of cytokines: 12 h of exposure; for IL8 mRNA: HIO, triplicate
Description: Caco‐2 cell (ATCC, Manassas, VA) passages 25–35 were maintained and expanded in culture flasks in Dulbecco's modified Eagle's medium (DMEM) with 10% FBS and 1× antibiotic–antimycotic. The cells were kept in a humidified 37°C incubator with 5% CO2. Media were changed every 2–3 days, and cells were passaged 1–2 times a week. For all experiments, Caco‐2 cells (5 × 10^4 cells/ml) were seeded into 12‐well Transwell inserts or coverslips and cultured for 3 weeks. HIOs were generated from iPSCs as described previously (Spence et al, 2011), with some modifications. The iPSC cell line IISH1i‐BM1 (WiCell, Madison, WI) was cultured on Matrigel plates to 80% confluence in mTeSR™ 1 medium (Stem Cell Technologies, Seattle, WA) and differentiated to endoderm using Definitive Endoderm Kit (Stem Cell Technologies., Seattle, WA) for 4 days with daily media changes. Endoderm was then differentiated to hindgut for 5 days with the addition of FGF‐4 (500 ng/ml; Peprotech, Rocky Hill, NJ) and Chir99021 (3 μM; Cayman, Ann Arbor, MI) in RPMI media supplemented with 2% FBS. Floating hindgut spheroids were collected on days 3–5 of hindgut differentiation and suspended in Matrigel beads for HIO differentiation. HIOs were maintained in WENRAS media (Fujii et al, 2015), which maintains proliferation in the culture. Stock HIOs were passaged weekly by removing Matrigel with Cell Recovery Solution (Corning, NY) and mechanically breaking up organoids with pipetting. HIOs were seeded into new Matrigel beads at a 1:3 split, using WENRAS with added Rock Inhibitor Y‐27632 (10 μM) and Chir99021 (3 μM; Cayman., Ann Arbor, MI) for the first 2 days of culture.
HIOs and Caco‐2 were exposed to a pro‐inflammatory cytokine cocktail (10 ng/ml IFN‐γ, 10 ng/ml TNF‐α, 50 ng/ml IL‐1β) for 2–24 h in combination with DMSO or FKK5 and FKK6 compounds (10 and 25 μm). Relative mRNA levels of IL‐8 and IL‐6 were determined using quantitative real‐time PCR, with normalization to GAPDH. RNA was isolated using an RNeasy Mini Kit (Qiagen) as per the manufacturer's instructions. On column DNase (Qiagen) was used to remove any contaminating DNA. Next, cDNA was formed using iScript cDNA Synthesis Kit (Bio‐Rad) and 100 ng RNA. qRT–PCR was performed with SsoAdvanced Universal SYBR Green Kit (Bio‐Rad). The following primers were used: IL‐8 Forward: […]; IL‐8 Reverse: […]; IL‐6 Forward: […]; IL‐6 Reverse: […]; GAPDH Forward: […]; GAPDH Reverse: […]. For immunofluorescent staining of NF‐ĸB translocation to the cell nucleus, HIOs and Caco‐2 cell monolayers were fixed in 4% formaldehyde (in 1 × PBS) overnight at 4°C. The formaldehyde was removed by washing with 1 × PBS, and an antigen retrieval step was performed by incubating in 10 mM sodium citrate buffer in a vegetable steamer for 20 min. The samples were then blocked with normal donkey serum (10% in PBS with 0.3% Triton X‐100) for 1 h. Samples were incubated overnight with primary antibodies: rabbit anti‐NF‐κB p65 (D14E12 # 8242, 1:400 dilution, Cell Signaling Technology, Danvers MA), then immersed in Alexa Fluor® 555 donkey anti‐rabbit secondary antibody (A‐31572, Life Technologies) at a 1:500 dilution. Nuclei were stained with Hoechst 33342 (Life Technologies). The samples were then imaged using a Zeiss LSM880 Confocal/Multiphoton Upright Microscope, with 3‐D image rendering using Volocity. For controls, normal rabbit IgG (#2729S, Life Technologies) was used.

[1] = tested on: CYP1A1, CYP3A4, MDR1 mRNA in LS180 cells; assay: qRT-PCR of CYP1A1, CYP3A4, MDR1 mRNA in LS180 cells with or without (mock) transfected PXR; conditions: for CYP1A1 mRNA induction: LS180 cells; for CYP1A1 mRNA fold to C / CYP3A4 mRNA fold to C / MDR-1 mRNA fold to C / MDR1 mRNA fold to C: normalised to GAPDH, fold to UT control
Description: Cells or primary human hepatocytes from four different donors (HEP200529, HEP220932, HEP200533, and HEP200538) were incubated for 24 h with test compounds; the vehicle was DMSO (0.1% v/v). Total RNA was isolated using TRI Reagent® (Molecular Research Center, Ohio, USA). cDNA was synthesized from 1,000 ng of total RNA using M‐MuLV Reverse Transcriptase (New England Biolabs, Ipswich, Massachusetts, USA) at 42°C for 60 min in the presence of random hexamers (New England Biolabs). Quantitative reverse transcriptase–polymerase chain reaction (qRT–PCR) was performed using LightCycler® 480 Probes Master on a LightCycler® 480 II apparatus (Roche Diagnostic Corporation).
The following protocol was used: An activation step at 95°C for 10 min was followed by 45 cycles of PCR (denaturation at 95°C for 10 s; annealing with elongation at 60°C for 30 s). The measurements were performed in triplicate. Gene expression was normalized per GAPDH as a housekeeping gene. […] Data are expressed as fold induction ± SD over the vehicle‐treated cells. The bar graph depicts one representative experiment of a series of experiments performed in three consecutive passages of cells. Differences were tested using one‐way ANOVA with Dunnett's post hoc test, and P < 0.05 was considered significant.

PPARγ = molecular target: T1, PPARγ (Homo sapiens, UniProt P37231); assay: PPARγ reporter assay in PAZ-PPARg cells; type: cell-based
T1 construct: endogenous in cells; host or cells: PAZ-PPARg
Description: volume of 20 µl in 384-well black plates, with concentrations of tested compounds in the range from 1 […]
dark, and then fluorescent signals were measured at 495 nm and 520 nm, with the excitation filter 340 nm, on Infinite F200 microplate reader (Tecan Group Ltd, Switzerland). Finally, the TR-FRET ratio was calculated by dividing the emission signal of 520 nm by that at 495 nm. All experiments were done in tetraplicates and as two independent experiments. Final EC50 values were obtained by processing the data with GraphPad Prism 6 using standard curve interpolation (sigmoidal, 4PL, variable slope).
Tr a nscriptional activity of PPARγ was studied in stably transfected reporter cell line PAZ-PPARg 20. Cells were seeded in 96 -well plates, stabilized for 24 h, and then incubated with tested compound. Dimethyl sulfoxide (DMSO; 0.1% v/v) and 15 -deoxy-δ1 2 , 1 4-prostaglandin J2 […]
(Schoeller Instruments, Prague, Czech Republic). The data are expressed as fold induction ± SD of luciferase activity over the control cells. Differences were tested using one-way ANOVA wit h Dunnett’s post hoc test, p < 0.05, was considered significant (*).

[2] = tested on: TLR4, CYP3A4, MDR1 mRNA in Caco-2 cells; assay: RT-qPCR of TLR4, CYP3A4, MDR1 mRNA in PXR-transfected Caco-2 cells; type: cell-based, human; conditions: 10 μM; for CYP3A4 mRNA expression / MDR1 mRNA expression (Fold Change) / TLR4 mRNA expression: 24 h; for CYP3A4 Mean Fold expression / MDR1 Mean Fold expression / hTLR4 Mean Fold expression: DMSO = 1
Description: RT–qPCR was performed using Thermo Fisher PowerUp SYBR Green Master Mix (# A25742) and Thermo Fisher qPCR 7900HT. Each sample was repeated in quadruplicate and normalized to internal control, GAPDH. The entire experiment was repeated at least two separate times. The primer sequences are noted in Table 2.

[3] = compound 10µm, no cytokines, 2 hr
[4] = cytokines + compound 10µm, 2 hr
[5] = cytokines + compound 25µm, 2 hr

T1 sequence (P37231 whole entry): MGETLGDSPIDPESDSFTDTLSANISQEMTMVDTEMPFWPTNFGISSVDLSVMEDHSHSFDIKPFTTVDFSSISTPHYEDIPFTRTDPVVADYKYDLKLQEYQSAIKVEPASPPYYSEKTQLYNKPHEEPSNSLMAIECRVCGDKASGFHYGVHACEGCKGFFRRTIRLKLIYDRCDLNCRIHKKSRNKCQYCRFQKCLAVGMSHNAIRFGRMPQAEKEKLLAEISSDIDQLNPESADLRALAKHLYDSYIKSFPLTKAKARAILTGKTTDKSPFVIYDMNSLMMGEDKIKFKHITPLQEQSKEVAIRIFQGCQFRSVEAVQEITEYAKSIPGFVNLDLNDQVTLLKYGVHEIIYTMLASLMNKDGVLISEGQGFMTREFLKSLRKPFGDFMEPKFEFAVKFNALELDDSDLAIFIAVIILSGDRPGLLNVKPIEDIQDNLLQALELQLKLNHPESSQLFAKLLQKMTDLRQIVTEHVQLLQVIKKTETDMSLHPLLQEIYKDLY

O=C(c1ccncc1)c1cc2ccccc2n1S(=O)(=O)c1ccccc1 [FKK5, (1-(phenylsulfonyl)-1H-indol-2-yl)(pyridin-4-yl)methanone]
basal IL-8 expression (IL-8 mRNA in HIOs): no significant effect
IL-8 mRNA expression in presence of cytokines (IL-8 mRNA in HIOs): significantly reduced
IL8 mRNA (IL-8 mRNA in HIOs; [3]): 18.0113 and 18.2375 and 29.1251
IL8 mRNA (IL-8 mRNA in HIOs; compound 25µm, no cytokines, 2 hr): 28.3595 and 38.1574 and 25.5014
IL8 mRNA (IL-8 mRNA in HIOs; [4]): 84.3969 and 82.9774 and 82.3934
IL8 mRNA (IL-8 mRNA in HIOs; cytokines + compound 10µm, 12 hr): 1568.63 and 1202.46 and 1346.22
IL8 mRNA (IL-8 mRNA in HIOs; [5]): 91.455 and 107.347 and 106.247
IL8 mRNA (IL-8 mRNA in HIOs; cytokines + compound 25µm, 12 hr): 1661.53 and 1048.7 and 891.557
CYP1A1 mRNA induction [1]: did not induce
CYP1A1 mRNA fold to C ([1]; PXR-transfected LS180 cells): 1.86
CYP3A4 mRNA fold to C ([1]; PXR-transfected LS180 cells): 3.69
MDR-1 mRNA fold to C ([1]; PXR-transfected LS180 cells): 4.10
CYP1A1 mRNA fold to C ([1]; mock-transfected LS180 cells): 8.19
CYP3A4 mRNA fold to C ([1]; mock-transfected LS180 cells): 0.94
MDR1 mRNA fold to C ([1]; mock-transfected LS180 cells): 3.80
PPARγ ligand agonist activity (PPARγ): did not observe any significant ligand agonist activity
CYP3A4 mRNA expression [2]: 3.7 fold
MDR1 mRNA expression (Fold Change) [2]: 5.12 fold
TLR4 mRNA expression [2]: 0.39 fold
CYP3A4 Mean Fold expression [2]: 3.7
MDR1 Mean Fold expression [2]: 5.12
hTLR4 Mean Fold expression [2]: 0.39

C#CCC(O)(c1ccncc1)c1cc2ccccc2n1S(=O)(=O)c1ccccc1 (stereo not shown) [FKK6]
basal IL-8 expression (IL-8 mRNA in HIOs): no significant effect
IL-8 mRNA expression in presence of cytokines (IL-8 mRNA in HIOs): significantly reduced
IL8 mRNA (IL-8 mRNA in HIOs; [3]): 17.457 and 16.5395 and 13.4302
IL8 mRNA (IL-8 mRNA in HIOs; [4]): 87.755 and 95.5702 and 80.4889
IL8 mRNA (IL-8 mRNA in HIOs; [5]): 19.632 and 32.9894 and 27.3407
CYP1A1 mRNA induction [1]: did not induce
CYP3A4 mRNA induction ([1]; PXR-transfected LS180 cells): induced
MDR1 mRNA induction ([1]; PXR-transfected LS180 cells): induced
CYP1A1 mRNA fold to C ([1]; PXR-transfected LS180 cells): 2.02
CYP3A4 mRNA fold to C ([1]; PXR-transfected LS180 cells): 18.02
MDR-1 mRNA fold to C ([1]; PXR-transfected LS180 cells): 10.37
CYP1A1 mRNA fold to C ([1]; mock-transfected LS180 cells): 4.61
CYP3A4 mRNA fold to C ([1]; mock-transfected LS180 cells): 1.10
MDR1 mRNA fold to C ([1]; mock-transfected LS180 cells): 5.17
PPARγ ligand agonist activity (PPARγ): did not observe any significant ligand agonist activity
CYP3A4 mRNA expression [2]: 3.29 fold
MDR1 mRNA expression (Fold Change) [2]: 6.45 fold
TLR4 mRNA expression [2]: 0.49 fold
CYP3A4 Mean Fold expression [2]: 3.29
MDR1 Mean Fold expression [2]: 6.45
hTLR4 Mean Fold expression [2]: 0.49
